Values of other authors, collected in patent publication US6881247B2, “Protective barrier coating composition” (priority 2003, dated 2005).

Conditions: calcium hydroxide

Compound: [Ca+2].[OH-].[OH-] [calcium hydroxide, Calcium hydroxide]
- pH: 12.4
